According to PubChem BioAssay (NCI):
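Compound exposure: 48 hours, 5 concentrations, 96-well plates. GI50 = concentration required for 50% inhibition of growth. TGI denotes the concentration required for complete inhibition of growth.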

Key:
Assay in all cases: NCI anticancer screen, dose series, 48 h
[1] = tested on: ACHN renal
[2] = tested on: BT-549 breast
[3] = tested on: RPMI-8226 leukemia
[4] = tested on: MDA-MB-435
[5] = tested on: OVCAR-3 ovarian
[6] = tested on: NCI-H460 lung
[7] = tested on: HS 578T breast
[8] = tested on: MDA-MB-231 breast
[9] = tested on: HOP-92 NSCLC
[10] = tested on: SK-MEL-5 melanoma
[11] = tested on: CCRF-CEM leukemia
[12] = tested on: LOX IMVI melanoma
[13] = tested on: SNB-19 CNS
[14] = tested on: NCI-H23 lung
[15] = tested on: A498 renal
[16] = tested on: NCI-H522 lung
[17] = tested on: SF-295 CNS
[18] = tested on: U251 CNS
[19] = tested on: SF-268 CNS
[20] = tested on: IGROV1 ovarian
[21] = tested on: UO-31 renal
[22] = tested on: SR leukemia
[23] = tested on: MCF7 breast
[24] = tested on: OVCAR-8 ovarian
[25] = tested on: HT29 colon
[26] = tested on: TK-10 renal
[27] = tested on: DU-145 prostate
[28] = tested on: COLO 205 colon
[29] = tested on: SF-539 CNS
[30] = tested on: M14 melanoma
[31] = tested on: CAKI-1 renal
[32] = tested on: SK-MEL-28 melanoma
[33] = tested on: T-47D breast
[34] = tested on: HCT-15 colon
[35] = tested on: 786-0 renal
[36] = tested on: HOP-62 NSCLC
[37] = tested on: SK-OV-3 ovarian
[38] = tested on: NCI-H226 lung
[39] = tested on: EKVX NSCLC
[40] = tested on: K-562 leukemia
[41] = tested on: OVCAR-5 ovarian
[42] = tested on: RXF 393 renal
[43] = tested on: UACC-257 melanoma
[44] = tested on: SK-MEL-2 melanoma
[45] = tested on: SNB-75 CNS
[46] = tested on: HCT-116 colon
[47] = tested on: SW-620 colon
[48] = tested on: A549 NSCLC
[49] = tested on: SN12C renal
[50] = tested on: OVCAR-4 ovarian
[51] = tested on: NCI/ADR-RES ovarian
[52] = tested on: UACC-62 melanoma
[53] = tested on: KM12 colon
[54] = tested on: HCC-2998 colon
[55] = tested on: MOLT-4 leukemia
[56] = tested on: PC-3 prostate

Which results are given for `O=c1[nH]nc(-c2nn(-c3ccc(Cl)cc3)cc2O)o1`?
GI50 [1]: 142 nM; TGI [1]: > 100 µM; GI50 [2]: 19.1 nM; TGI [2]: 219 nM; GI50 [3]: 172 nM; GI50 [4]: 20.5 nM; GI50 [5]: 472 nM; TGI [5]: 12.5 µM; GI50 [6]: 42.9 nM; TGI [6]: > 100 µM; GI50 [7]: 61.9 nM; TGI [7]: 3.16 µM; GI50 [8]: 4.56 µM; TGI [8]: > 50.4 µM; GI50 [9]: 280 nM; GI50 [10]: 201 nM; TGI [10]: 1440 nM; GI50 [11]: 303 nM; TGI [11]: > 62.1 µM; GI50 [12]: 194 nM; TGI [12]: > 43.3 µM; GI50 [13]: 187 nM; TGI [13]: > 100 µM; GI50 [14]: 108 nM; TGI [14]: 673 nM; GI50 [15]: 87 nM; TGI [15]: 464 nM; GI50 [16]: 696 nM; TGI [16]: > 100 µM; GI50 [17]: 51.8 nM; TGI [17]: > 100 µM; GI50 [18]: 25 nM; TGI [18]: > 100 µM; GI50 [19]: 117 nM; TGI [19]: > 100 µM; GI50 [20]: 117 nM; TGI [20]: > 100 µM; GI50 [21]: 331 nM; TGI [21]: > 34.3 µM; GI50 [22]: 33.4 nM; TGI [22]: 266 nM; GI50 [23]: 340 nM; TGI [23]: > 100 µM; GI50 [24]: 317 nM; TGI [24]: > 100 µM; GI50 [25]: 2020 nM; TGI [25]: > 100 µM; GI50 [26]: 37.6 nM; TGI [26]: 276 nM; GI50 [27]: 56.2 nM; TGI [27]: 1450 nM; GI50 [28]: 3.25 µM; TGI [28]: > 100 µM; GI50 [29]: 74.1 nM; TGI [29]: 2240 nM; GI50 [30]: 132 nM; TGI [30]: 13 µM; GI50 [31]: 156 nM; TGI [31]: 13 µM; GI50 [32]: 25.1 µM; TGI [32]: > 100 µM; GI50 [33]: 221 nM; TGI [33]: > 100 µM; GI50 [34]: 152 nM; TGI [34]: > 100 µM; GI50 [35]: 519 nM; TGI [35]: 36.5 µM; GI50 [36]: 99 nM; TGI [36]: 36 µM; GI50 [37]: 385 nM; TGI [37]: > 100 µM; GI50 [38]: 133 nM; TGI [38]: 3.73 µM; GI50 [39]: 92.5 nM; TGI [39]: 904 nM; GI50 [40]: 46 nM; GI50 [41]: 499 nM; TGI [41]: > 100 µM; GI50 [42]: 741 nM; TGI [42]: > 72.4 µM; GI50 [43]: 610 nM; TGI [43]: > 100 µM; GI50 [44]: 536 nM; TGI [44]: 46.2 µM; GI50 [45]: 227 nM; TGI [45]: > 100 µM; GI50 [46]: 71.8 nM; TGI [46]: 927 nM; GI50 [47]: 470 nM; TGI [47]: > 100 µM; GI50 [48]: 91.3 nM; TGI [48]: > 100 µM; GI50 [49]: 119 nM; TGI [49]: 5.77 µM; TGI [50]: > 100 µM; GI50 [51]: 121 nM; TGI [51]: 2750 nM; GI50 [52]: 166 nM; TGI [52]: 2820 nM; GI50 [53]: 134 nM; GI50 [54]: 238 nM; TGI [54]: 3.5 µM; GI50 [55]: 53.7 nM; TGI [55]: 944 nM; GI50 [56]: 401 nM; TGI [56]: > 100 µM
